pIC50: −log10 of the molar value.
Legend:
Type in all cases: cell-based, human
MV4;11 [1] = test: cells; details: read-out: IC50, cell proliferation
KASUMI-1 = test: cells; details: read-out: IC50, cell proliferation
OCI-AML3 = test: cells; details: read-out: IC50, cell proliferation
K562 [2] = system: K562
K562 [3] = system: K562; remark: listed apart in the source
MV4;11 [4] = system: MV4;11
K562 [5] = test: Genome-wide expression analysis / MetaCore, GSEA; details: K562, 6-hour treatment, 500 nM
MV4;11 [6] = test: Genome-wide expression analysis / MetaCore, GSEA; details: MV4;11, 6-hour treatment, 500 nM

Molecule	pIC50 (MV4;11 [1])	pIC50 (KASUMI-1)	pIC50 (OCI-AML3)	effect on cell proliferation (K562 [2])	effect on cell cycle (K562 [3])	effect on cell cycle (MV4;11 [4])	effect on gene expression (K562 [5])	effect on gene expression (MV4;11 [6])
(+)-JQ1 [reference compound]	7.10	7.37	7.31	No significant effect	little effect on cell cycle	distinct G1 arrest with reduced S-phase populations	–	–
CCCOc1ccn2c(C(C)=O)cc(-c3ccccc3S(C)(=O)=O)c2c1 [GSK2801]	–	–	–	–	–	–	no significant effect	no significant effect

— article PMC5061470, “Promiscuous targeting of bromodomains by bromosporine identifies BET proteins as master regulators of primary transcription response in leukemia” (Science Advances, 2016)
